Measurements reported in the CheMixHub viscosity set.

Assay: xn = mol fraction of the nth substance listed

CC(=O)O.NCCO + CCO
viscosity [mPa·s], 101 kPa
Settings	x1 = 0.0193	x2 = 0.7231	x2 = 0.7996	x2 = 0.8604	x2 = 0.9136	x2 = 0.9373	x2 = 0.9595
293.15 K	1.608	20.45	9.894	5.502	3.168	2.55	1.998
298.15 K	1.458	16.96	8.454	4.8	2.85	2.28	1.806
303.15 K	1.32	14.22	7.26	4.212	2.55	2.07	1.65

CS(C)=O + Cc1ccc(C)cc1
viscosity [mPa·s], 101 kPa
Settings	x1 = 0.0993	x1 = 0.2067	x1 = 0.3019	x1 = 0.4	x1 = 0.5042	x1 = 0.59	x1 = 0.6956	x1 = 0.801	x1 = 0.8963
293.15 K	0.695	0.771	0.857	0.935	1.032	1.2	1.372	1.586	1.84
303.15 K	0.612	0.676	0.744	0.828	0.913	1.027	1.167	1.339	1.557
313.15 K	0.551	0.605	0.661	0.728	0.787	0.89	1.004	1.142	1.302
323.15 K	0.49	0.555	0.582	0.636	0.705	0.768	0.861	0.971	1.1

CCCCC + COC(C)=O
298.15 K, 101 kPa
Settings	viscosity [mPa·s]
x1 = 0.05	0.342
x1 = 0.1	0.324
x1 = 0.1087	0.322
x1 = 0.15	0.309
x1 = 0.2	0.296
x1 = 0.2088	0.295
x1 = 0.25	0.285
x1 = 0.3	0.275
x1 = 0.3035	0.273
x1 = 0.35	0.266
x1 = 0.4	0.257
x1 = 0.401	0.258
x1 = 0.45	0.25
x1 = 0.5	0.243
x1 = 0.5022	0.243
x1 = 0.55	0.237
x1 = 0.5972	0.232
x1 = 0.6	0.232
x1 = 0.65	0.227
x1 = 0.7	0.223
x1 = 0.7028	0.223
x1 = 0.75	0.22
x1 = 0.8	0.218
x1 = 0.8002	0.219
x1 = 0.85	0.217
x1 = 0.9	0.216
x1 = 0.9009	0.218
x1 = 0.95	0.215

CS(C)=O + CCCO
Settings	viscosity [mPa·s]
298.15 K, 101.3 kPa, x1 = 0.0789	1.75
298.15 K, 101.3 kPa, x1 = 0.1613	1.651
298.15 K, 101.3 kPa, x1 = 0.339	1.535
298.15 K, 101.3 kPa, x1 = 0.434	1.541
298.15 K, 101.3 kPa, x1 = 0.5363	1.562
298.15 K, 101.3 kPa, x1 = 0.6421	1.641
298.15 K, 101.3 kPa, x1 = 0.755	1.736
298.15 K, 101.3 kPa, x1 = 0.8737	1.845
298.15 K, 101.31 kPa, x1 = 0.1053	1.666
298.15 K, 101.31 kPa, x1 = 0.2078	1.55
298.15 K, 101.31 kPa, x1 = 0.413	1.496
298.15 K, 101.31 kPa, x1 = 0.5099	1.527
298.15 K, 101.31 kPa, x1 = 0.7025	1.664
298.15 K, 101.31 kPa, x1 = 0.7984	1.746
298.15 K, 101.31 kPa, x1 = 0.9011	1.871
303.15 K, 101 kPa, x1 = 0.5	1.425
303.15 K, 101.3 kPa, x1 = 0.0789	1.63
303.15 K, 101.3 kPa, x1 = 0.1613	1.54
303.15 K, 101.3 kPa, x1 = 0.2478	1.452
303.15 K, 101.3 kPa, x1 = 0.5363	1.436
303.15 K, 101.3 kPa, x1 = 0.6421	1.495
303.15 K, 101.3 kPa, x1 = 0.755	1.57
303.15 K, 101.3 kPa, x1 = 0.8737	1.676
308.15 K, 101.31 kPa, x1 = 0.2973	1.249
308.15 K, 101.31 kPa, x1 = 0.5099	1.29
308.15 K, 101.31 kPa, x1 = 0.5989	1.329
308.15 K, 101.31 kPa, x1 = 0.7984	1.465
308.15 K, 101.31 kPa, x1 = 0.9011	1.56
313.15 K, 101 kPa, x1 = 0.7998	1.335
318.15 K, 101.31 kPa, x1 = 0.1053	1.116
318.15 K, 101.31 kPa, x1 = 0.2078	1.064
318.15 K, 101.31 kPa, x1 = 0.2973	1.048
318.15 K, 101.31 kPa, x1 = 0.413	1.064
318.15 K, 101.31 kPa, x1 = 0.5099	1.093
318.15 K, 101.31 kPa, x1 = 0.5989	1.129
318.15 K, 101.31 kPa, x1 = 0.7025	1.189
318.15 K, 101.31 kPa, x1 = 0.7984	1.239
318.15 K, 101.31 kPa, x1 = 0.9011	1.314

CC/C=C\CCO + CCCCCC
viscosity [mPa·s], 100 kPa
Settings	293.15 K	298.15 K	303.15 K	308.15 K	313.15 K	318.15 K
x1 = 0.025	0.3277	0.3128	0.3002	0.2869	0.2756	0.2648
x1 = 0.0501	0.3397	0.3264	0.3121	0.2966	0.2844	0.2727
x1 = 0.1	0.3655	0.3504	0.3343	0.3164	0.3024	0.2892
x1 = 0.2001	0.4403	0.4139	0.392	0.369	0.3498	0.3318
x1 = 0.2999	0.5582	0.5227	0.4881	0.4558	0.4197	0.3967
x1 = 0.4003	0.6649	0.6196	0.5788	0.5377	0.497	0.467
x1 = 0.4994	0.8527	0.7851	0.7244	0.6686	0.6173	0.5715
x1 = 0.5998	1.103	1.005	0.9179	0.8404	0.7733	0.7131
x1 = 0.6998	1.451	1.306	1.18	1.07	0.978	0.889
x1 = 0.7995	1.878	1.701	1.522	1.366	1.238	1.126
x1 = 0.8996	2.51	2.234	1.981	1.763	1.58	1.429
